Measurements taken from patent US20080269298A1, “Benzimidazol-1-YL-thiophene compounds for the treatment of cancer” (priority 2002, published 2008).

What was measured:
[1] = system: colon (HCT116) tumor cell line; test: Methylene Blue Growth Inhibition Assay, HCT116; format: cell-based; conditions: Homo sapiens, HCT-116, 72 h; Cell Line HCT116, 3 days; read-out: MeB IC50
In short: (§1)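 Growth inhibition is measured as methylene blue-stained biomass (OD 620 nm) after 3 days of compound treatment, relative to vehicle controls. Cells grow in high-glucose DMEM with 10% FBS and 0.3% final DMSO; IC50 comes from nonlinear regression.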

[2] = system: breast tumor (MCF7) cell line; test: Methylene Blue Growth Inhibition Assay, MCF7; format: cell-based; conditions: Homo sapiens, 72 h; Cell Line MCF7, 3 days; read-out: MeB IC50
In short: as §1

PLK1 kinase domain = biological target: T1, PLK1 kinase domain (Homo sapiens, UniProt P53350); test: Assay for Inhibition of PLK1 (SPA enzyme activity); format: biochemical; conditions: 2 μM ATP, read-out: Ave pIC50 PLK Enzyme Inhibition (converted)
T1 construct: made in house; host or cells: baculovirus-infected T. ni insect cells
T1 sequence (P53350 21-346): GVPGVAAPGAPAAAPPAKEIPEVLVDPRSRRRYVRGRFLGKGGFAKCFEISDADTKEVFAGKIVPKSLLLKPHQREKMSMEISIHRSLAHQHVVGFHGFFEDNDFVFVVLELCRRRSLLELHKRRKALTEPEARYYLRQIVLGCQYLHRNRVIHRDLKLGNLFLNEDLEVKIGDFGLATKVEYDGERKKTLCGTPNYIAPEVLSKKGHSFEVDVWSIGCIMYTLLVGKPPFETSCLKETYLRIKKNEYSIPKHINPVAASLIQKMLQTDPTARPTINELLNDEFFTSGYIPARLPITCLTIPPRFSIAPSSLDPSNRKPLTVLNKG

[3] = system: lung (H460) tumor cell line; test: Methylene Blue Growth Inhibition Assay, H460; format: cell-based; conditions: Homo sapiens, NCI-H460, 72 h; Cell Line H460, 3 days; read-out: MeB IC50
In short: as §1

[4] = system: prostate (PC3) tumor cell line; test: Methylene Blue Growth Inhibition Assay, PC3; format: cell-based; conditions: Homo sapiens, 72 h; Cell Line PC3, 3 days; read-out: MeB IC50
In short: as §1

[5] = system: Normal Human foreskin fibroblasts (HFF); test: Methylene Blue Growth Inhibition Assay, HFF; format: cell-based; conditions: 72 h, Cell Line HFF, 3 days, read-out: MeB IC50
In short: as §1

[6] = system: colon (RKO) tumor cell line; test: Methylene Blue Growth Inhibition Assay, RKO; format: cell-based; conditions: Homo sapiens, 72 h, 3 days, read-out: MeB IC50
In short: as §1

Row | IC50 [1] | IC50 [2] | IC50 (PLK1 kinase domain) | IC50 [3] | IC50 [4] | IC50 [6] | SMILES | IC50 [5]
1 | > 10 µM | > 10 µM | < 0.1 µM | > 10 µM | > 10 µM | > 10 µM | Cc1ccccc1COc1cc(-n2cnc3cc(Cl)c(Cl)cc32)sc1C(=O)O [Example 66, 5-(5,6-Dichloro-1H-benzimidazol-1-yl)-3-[(2-methylbenzyl)oxy]-thiophene-2-carboxylic acid] | > 10 µM
2 | 1 to 10 µM | 1 to 10 µM | < 0.1 µM | 1 to 10 µM | > 10 µM | 1 to 10 µM | NC(=O)c1ccc2c(c1)ncn2-c1cc(OCc2ccccc2C(F)(F)F)c(C(N)=O)s1 [Example 125, 1-[5-(Aminocarbonyl)-4-({[2-(trifluoromethyl)phenyl]methyl}oxy)-2-thienyl]-1H-benzimidazole-5-carboxamide] | > 10 µM
3 | > 10 µM | > 10 µM | < 0.1 µM | > 10 µM | > 10 µM | > 10 µM | O=C(O)c1sc(-n2cnc3ccc(Cl)cc32)cc1OCc1ccc(F)cc1Cl [Example 70, 5-(6-Chloro-1H-benzimidazol-1-yl)-3-[(2-Chloro-4-fluorobenzyl)oxy]-thiophene-2-carboxylic acid] | > 10 µM
4 | 1 to 10 µM | 1 to 10 µM | < 0.1 µM | 1 to 10 µM | 1 to 10 µM | 1 to 10 µM | COc1cc2ncn(-c3cc(OCc4ccccc4SC)c(C(N)=O)s3)c2cc1OC [Example 97] | 1 to 10 µM
5 | > 10 µM | > 10 µM | < 0.1 µM | > 10 µM | > 10 µM | > 10 µM | COc1cc2ncn(-c3cc(OCc4ccccc4C(F)(F)F)c(C(N)=S)s3)c2cc1OC [Example 145] | > 10 µM
6 | 1 to 10 µM | 1 to 10 µM | < 0.1 µM | 1 to 10 µM | > 10 µM | 1 to 10 µM | NC(=O)c1sc(-n2cnc3cc4c(cc32)OCCCO4)cc1OCc1ccccc1C(F)(F)F [Example 89] | > 10 µM
7 | > 10 µM | > 10 µM | 0.1 to 10 µM | > 10 µM | > 10 µM | > 10 µM | COc1cc2ncn(-c3cc(OCCN4CCOCC4)c(C(N)=O)s3)c2cc1OC [Example 113, 5-(5,6-Dimethoxy-1H-benzimidazol-1-yl)-3-(2-morpholin-4-ylethoxy)thiophene-2-carboxamide] | > 10 µM
8 | < 1 µM | < 1 µM | < 0.1 µM | < 1 µM | 1 to 10 µM | < 1 µM | COc1cc2ncn(-c3cc(OCc4ccccc4C(F)(F)F)c(C(N)=O)s3)c2cc1OCCCN(C)C [Example 135, 5-[6-{[3-(Dimethylamino)propyl]oxy}-5-(methyloxy)-1H-benzimidazol-1-yl]-3-({[2-(trifluoromethyl)phenyl]methyl}oxy)-2-thiophenecarboxamide] | 1 to 10 µM
9 | > 10 µM | > 10 µM | < 0.1 µM | > 10 µM | > 10 µM | > 10 µM | Cc1ccccc1COc1cc(-n2cnc3cc(Cl)ccc32)sc1C(=O)O [Example 34, 5-(5-Chloro-1H-benzimidazol-1-yl)-3-[(2-methylbenzyl)oxy]thiophene-2-carboxylic acid] | > 10 µM
10 | 1 to 10 µM | 1 to 10 µM | 0.1 to 10 µM | > 10 µM | > 10 µM | 1 to 10 µM | NC(=O)c1sc(-n2cnc3ccccc32)cc1CCc1ccccc1 [Example 130, 5-(1H-Benzimidazol-1-yl)-3-(2-phenylethyl)thiophene-2-carboxamide] | > 10 µM
11 | 1 to 10 µM | 1 to 10 µM | 0.1 to 10 µM | 1 to 10 µM | > 10 µM | 1 to 10 µM | NC(=O)c1sc(-n2c(N)nc3ccccc32)cc1OCc1ccccc1C(F)(F)F [Example 148, 5-(2-Amino-1H-benzimidazol-1-yl)-3-{[2-(trifluoromethyl)benzyl]oxy}thiophene-2-carboxamide] | > 10 µM
12 | 1 to 10 µM | 1 to 10 µM | 0.1 to 10 µM | 1 to 10 µM | 1 to 10 µM | 1 to 10 µM | COc1cc2ncn(-c3cc(OCc4ccccc4[S+](C)[O-])c(C(N)=O)s3)c2cc1OC (centres unmarked) [Example 98, 5-(5,6-Dimethoxy-1H-benzimidazol-1-yl)-3-{[2-(methylsulfinyl)benzyl]oxy}thiophene-2-carboxamide] | > 10 µM
13 | > 10 µM | 1 to 10 µM | 0.1 to 10 µM | 1 to 10 µM | > 10 µM | 1 to 10 µM | COc1ccc(COc2cc(-n3cnc4cc(OC)c(OC)cc43)sc2C(N)=O)cc1 [Example 128, 5-(5,6-Dimethoxy-1H-benzimidazol-1-yl)-3-[(4-methoxybenzyl)oxy]thiophene-2-carboxamide] | > 10 µM
14 | 1 to 10 µM | > 10 µM | < 0.1 µM | 1 to 10 µM | > 10 µM | > 10 µM | COC(=O)c1sc(-n2cnc3cc(OC)c(OC)cc32)cc1OS(=O)(=O)c1ccccc1[N+](=O)[O-] [Example 149] | > 10 µM
15 | > 10 µM | > 10 µM | < 0.1 µM | > 10 µM | > 10 µM | > 10 µM | CS(=O)(=O)CCNC(=O)c1ccc2c(c1)ncn2-c1cc(OCc2ccccc2C(F)(F)F)c(C(N)=O)s1 [Example 155, 1-(5-(Aminocarbonyl)-4-{[2-(trifluoromethyl)benzyl]oxy}thien-2-yl)-N-[2-(methylsulfonyl)ethyl]-1H-benzimidazole-5-carboxamide] | > 10 µM
16 | > 10 µM | > 10 µM | < 0.1 µM | > 10 µM | > 10 µM | > 10 µM | O=C(O)c1sc(-n2cnc3ccc(Cl)cc32)cc1OCc1ccc(F)cc1F [Example 71, 5-(6-Chloro-1H-benzimidazol-1-yl)-3-[(2,4-difluorobenzyl)oxy]-thiophene-2-carboxylic acid] | > 10 µM
17 | > 10 µM | > 10 µM | < 0.1 µM | > 10 µM | > 10 µM | > 10 µM | COc1cc2ncn(-c3cc(OS(=O)(=O)c4ccccc4C)c(C(=O)O)s3)c2cc1OC [Example 151, 5-(5,6-Dimethoxy-1H-benzimidazol-1-yl)-3-{[(2-methylphenyl)sulfonyl]oxy}thiophene-2-carboxylic acid] | > 10 µM
18 | 1 to 10 µM | 1 to 10 µM | < 0.1 µM | 1 to 10 µM | 1 to 10 µM | 1 to 10 µM | COc1cc2ncn(-c3cc(OCc4cccc(I)c4)c(C(N)=O)s3)c2cc1OC [Example 94] | 1 to 10 µM
19 | 1 to 10 µM | 1 to 10 µM | < 0.1 µM | 1 to 10 µM | 1 to 10 µM | < 1 µM | NC(=O)c1sc(-n2cnc3ccc(OCCN4CCCC4)cc32)cc1OCc1ccccc1C(F)(F)F [Example 139, 5-[6-(2-Pyrrolidin-1-ylethoxy)-1H-benzimidazol-1-yl]-3-{[2-(trifluoromethyl)benzyl]oxy}thiophene-2-carboxamide] | > 10 µM
20 | > 10 µM | > 10 µM | 0.1 to 10 µM | > 10 µM | > 10 µM | > 10 µM | NC(=O)c1sc(-n2cnc3ccccc32)cc1C#Cc1ccccc1 [Example 129, 5-(1H-Benzimidazol-1-yl)-3-(phenylethynyl)thiophene-2-carboxamide] | > 10 µM
21 | 1 to 10 µM | 1 to 10 µM | 0.1 to 10 µM | 1 to 10 µM | > 10 µM | 1 to 10 µM | CN(c1ccccc1)c1cc(-n2cnc3ccccc32)sc1C(N)=O [Example 131, 5-(1H-Benzimidazol-1-yl)-3-[methyl(phenyl)amino]thiophene-2-carboxamide] | > 10 µM
22 | > 10 µM | > 10 µM | < 0.1 µM | > 10 µM | > 10 µM | > 10 µM | O=C(O)c1sc(-n2cnc3ccc(Cl)cc32)cc1OCc1cccnc1 [Example 72, 5-(6-Chloro-1H-benzimidazol-1-yl)-3-(pyridin-3-ylmethoxy)thiophene-2-carboxylic acid] | > 10 µM
23 | 1 to 10 µM | 1 to 10 µM | < 0.1 µM | 1 to 10 µM | > 10 µM | 1 to 10 µM | CS(=O)(=O)Nc1ccc2ncn(-c3cc(OCc4ccccc4C(F)(F)F)c(C(N)=O)s3)c2c1 [Example 122, 5-{6-[(Methylsulfonyl)amino]-1H-benzimidazol-1-yl}-3-{[2-(trifluoromethyl)benzyl]-oxy}thiophene-2-carboxamide] | > 10 µM
